These results are taken from patent publication US8119681B2, “2-[1-phenyl-5-hydroxy or methoxy-4alpha-methyl-hexahydrocyclopenta [ƒ]indazole-5-YL]ethyl phenyl derivatives as glucocorticoid receptor ligands” (Merck Sharp & Dohme Corp., priority 2006, dated 2012).

The assay has as its target T1, glucocorticoid receptor (GR) (Homo sapiens, UniProt P04150).
T1 construct: endogenous in cells; host or cells: HeLa (ATCC) cell lysate supernatant
T1 sequence (P04150 1-777): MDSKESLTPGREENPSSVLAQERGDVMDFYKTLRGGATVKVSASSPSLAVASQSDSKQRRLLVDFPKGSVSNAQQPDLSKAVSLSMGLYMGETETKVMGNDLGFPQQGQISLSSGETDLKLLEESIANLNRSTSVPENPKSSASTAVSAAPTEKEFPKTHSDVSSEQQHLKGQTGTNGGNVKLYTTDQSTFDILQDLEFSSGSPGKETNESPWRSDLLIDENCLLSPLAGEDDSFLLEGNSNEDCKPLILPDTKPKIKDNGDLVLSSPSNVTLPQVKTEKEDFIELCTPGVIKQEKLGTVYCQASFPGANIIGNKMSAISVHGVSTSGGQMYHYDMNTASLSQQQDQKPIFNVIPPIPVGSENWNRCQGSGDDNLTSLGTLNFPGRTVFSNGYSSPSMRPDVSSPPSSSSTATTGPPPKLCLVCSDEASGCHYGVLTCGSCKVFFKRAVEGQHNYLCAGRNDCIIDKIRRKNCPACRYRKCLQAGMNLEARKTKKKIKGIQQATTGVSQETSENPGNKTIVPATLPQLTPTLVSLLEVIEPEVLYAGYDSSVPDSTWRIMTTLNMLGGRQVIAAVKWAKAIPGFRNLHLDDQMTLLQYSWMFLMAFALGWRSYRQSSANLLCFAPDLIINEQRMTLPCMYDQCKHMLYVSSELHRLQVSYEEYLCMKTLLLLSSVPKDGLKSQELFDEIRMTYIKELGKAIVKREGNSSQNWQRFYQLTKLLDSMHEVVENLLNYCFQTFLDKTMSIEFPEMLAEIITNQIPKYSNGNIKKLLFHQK
Description: Ligand binding assay (GR BIND), 3H-dexamethasone displacement, HeLa cell lysate. Conditions: Table 1; HeLa cell lysate, 3H-DEX. Put shortly:
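HeLa cell lysate supernatant in TEGM (pH 7.2, molybdate) incubated overnight at 4 °C with 3H-dexamethasone trace (6 nM stock) and serially diluted compound, 2% EtOH final. Bound receptor captured on hydroxylapatite, filtered and counted by scintillation; IC50 calculated with dexamethasone as reference.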
What is called Ki is a dissociation constant, usually derived from enzyme kinetics or from competition with a known ligand. Lower therefore signals tighter binding. `C[C@]12Cc3cnn(-c4ccc(F)cc4)c3C=C1CC[C@@]2(O)CCc1ccccc1S(=O)(=O)C1CC1` [Example 144, (4αS,5R)-5-{2-[2-(cyclopropylsulfonyl)phenyl]ethyl}-1-(4-fluorophenyl)-4α-methyl-1,4,4α,5,6,7-hexahydrocyclopenta[f]indazol-5-ol] showed a Ki of 1.32 nM.

`C[C@]12Cc3cnn(-c4ccc(F)cc4)c3C=C1CC[C@@]2(O)CCc1cccc(F)c1CO` [Example 148, (4αS,5R)-5-{2-[3-fluoro-2-(hydroxymethyl)phenyl]ethyl}-1-(4-fluorophenyl)-4α-methyl-1,4,4α,5,6,7-hexahydrocyclopenta[f]indazol-5-ol] came in with a Ki of 0.67 nM.

`C[C@]12Cc3cnn(-c4ccc(F)cc4)c3C=C1CC[C@@]2(O)CCc1cccc(F)c1[C@H](N)C(F)(F)F` [Example 151, (4αS,5R)-5-(2-{2-[(1S)-1-amino-2,2,2-trifluoroethyl]-3-fluorophenyl}ethyl)-1-(4-fluorophenyl)-4α-methyl-1,4,4α,5,6,7-hexahydrocyclopenta[f]indazol-5-ol] displayed a Ki of 1.74 nM.

Turning to `C[C@]12Cc3cnn(-c4ccc(F)cc4)c3C=C1CC[C@@]2(O)CCc1cccc(F)c1[C@@H](N)C(F)(F)F` [Example 152, (4αS,5R)-5-(2-{2-[(1R)-1-amino-2,2,2-trifluoroethyl]-3-fluorophenyl}ethyl)-1-(4-fluorophenyl)-4α-methyl-1,4,4α,5,6,7-hexahydrocyclopenta[f]indazol-5-ol], the affinity, expressed as Ki, was 2.6 nM.

In turn, `C[C@]12Cc3cnn(-c4ccc(F)cc4)c3C=C1CC[C@@]2(O)CCc1ccccc1C(=O)N1CC(=O)C1` [Example 156, 1-(2-{2-[(4αS,5R)-1-(4-fluorophenyl)-5-hydroxy-4α-methyl-1,4,4α,5,6,7-hexahydrocyclopenta[f]indazol-5-yl]ethyl}benzoyl)azetidin-3-one] had a Ki of 2.9 nM.

Consider `CC(=O)Cc1ccccc1CC[C@]1(O)CCC2=Cc3c(cnn3-c3ccc(F)cc3)C[C@@]21C` [Example 157, 1-(2-{2-[(4αS,5R)-1-(4-fluorophenyl)-5-hydroxy-4α-methyl-1,4,4α,5,6,7-hexahydrocyclopenta[f]indazol-5-yl]ethyl}phenyl)acetone], for which the Ki came to 1.5 nM.

On to `C[C@]12Cc3cnn(-c4ccc(F)cc4)c3C=C1CC[C@@]2(O)CCc1ccc(F)cc1C(N)=O` [Example 159, 5-fluoro-2-{2-[(4αS,5R)-1-(4-fluorophenyl)-5-hydroxy-4α-methyl-1,4,4α,5,6,7-hexahydrocyclopenta[f]indazol-5-yl]ethyl}benzamide], for which the Ki is 2.96 nM.

As to `C[C@]12Cc3cnn(-c4ccc(F)cc4)c3C=C1CC[C@@]2(O)/C=C/c1ccccc1S(N)(=O)=O` [Example 160, 2-{(E)-2-[(4αS,5R)-1-(4-fluorophenyl)-5-hydroxy-4α-methyl-1,4,4α,5,6,7-hexahydrocyclopenta[f]indazol-5-yl]vinyl}benzenesulfonamide], the affinity, expressed as Ki, was 0.94 nM.

Molecule `C[C@]12Cc3cnn(-c4ccc(F)cc4)c3C=C1CC[C@@]2(O)CCc1ccc(F)cc1C#N` [Example 163, 5-fluoro-2-{2-[(4αS,5R)-1-(4-fluorophenyl)-5-hydroxy-4α-methyl-1,4,4α,5,6,7-hexahydrocyclopenta[f]indazol-5-yl]ethyl}benzonitrile] yielded a Ki of 0.17 nM.

For the molecule `C[C@]12Cc3cnn(-c4ccc(F)c(F)c4)c3C=C1CC[C@@]2(O)CCc1cccc(F)c1C(N)=O` [Example 168, 2-{2-[(4α,5R)-1-(3,4-difluorophenyl)-5-hydroxy-4α-methyl-1,4,4α,5,6,7-hexahydrocyclopenta[f]indazol-5-yl]ethyl}-6-fluorobenzamide], the Ki turned out to be 2.16 nM.

Molecule `C[C@]12Cc3cnn(-c4ccc(F)cc4)c3C=C1CC[C@@]2(O)CCc1ccc(Cl)cc1C(N)=O` [Example 170, 5-chloro-2-{2-[(4αS,5R)-1-(4-fluorophenyl)-5-hydroxy-4α-methyl-1,4,4α,5,6,7-hexahydrocyclopenta[f]indazol-5-yl]ethyl}benzamide] had a Ki of 2.12 nM.

In turn, `C[C@]12Cc3cnn(-c4ccc(F)c(F)c4)c3C=C1CC[C@@]2(O)CCc1ccccc1C(N)=O` [Example 172, 2-{2-[(4αS,5R)-1-(3,4-difluorophenyl)-5-hydroxy-4α-methyl-1,4,4α,5,6,7-hexahydrocyclopenta[f]indazol-5-yl]ethyl}benzamide] came in with a Ki of 6.59 nM.

Molecule `Cc1ccc(C(N)=O)c(CC[C@]2(O)CCC3=Cc4c(cnn4-c4ccc(F)cc4)C[C@@]32C)c1` [Example 174, 2-{2-[(4αS,5R)-1-(4-fluorophenyl)-5-hydroxy-4α-methyl-1,4,4α,5,6,7-hexahydrocyclopenta[f]indazol-5-yl]ethyl}-4-methylbenzamide] returned a Ki of 4.76 nM.

`C[C@]12Cc3cnn(-c4ccc(Cl)cc4)c3C=C1CC[C@@]2(O)CCc1cccc(F)c1C(N)=O` [Example 185, 2-{2-[(4αS,5R)-1-(4-chlorophenyl)-5-hydroxy-4α-methyl-1,4,4α,5,6,7-hexahydrocyclopenta[f]indazol-5-yl]ethyl}-6-fluorobenzamide] yielded a Ki of 1.93 nM.

As to `COc1cccc(CC[C@]2(O)CCC3=Cc4c(cnn4-c4ccc(F)cc4)C[C@@]32C)c1C(N)=O` [Example 189, 2-{2-[(4αS,5R)-1-(4-fluorophenyl)-5-hydroxy-4α-methyl-1,4,4α,5,6,7-hexahydrocyclopenta[f]indazol-5-yl]ethyl}-6-methoxybenzamide], the Ki is 1.55 nM.

Turning to `Cc1cccc(CC[C@]2(O)CCC3=Cc4c(cnn4-c4cccc(F)c4)C[C@@]32C)c1C(N)=O` [Example 191, 2-{2-[(4αS,5R)-1-(3-fluorophenyl)-5-hydroxy-4α-methyl-1,4,4α,5,6,7-hexahydrocyclopenta[f]indazol-5-yl]ethyl}-6-methylbenzamide], affinity was put at a Ki of 2.51 nM.

The molecule `C[C@]12Cc3cnn(-c4ccc(F)cc4)c3C=C1CC[C@@]2(O)CCc1cccc(F)c1CC(N)=O` [Example 194, 2-(2-fluoro-6-{2-[(4αS,5R)-1-(4-fluorophenyl)-5-hydroxy-4α-methyl-1,4,4α,5,6,7-hexahydrocyclopenta[f]indazol-5-yl]ethyl}phenyl)acetamide] registered a Ki of 1.48 nM.

`C[C@]12Cc3cnn(-c4ccc(F)cc4)c3C=C1CC[C@@]2(O)CCc1cccc(Cl)c1CC(N)=O` [Example 197, 2-(2-chloro-6-{2-[(4αS,5R)-1-(4-fluorophenyl)-5-hydroxy-4α-methyl-1,4,4α,5,6,7-hexahydrocyclopenta[f]indazol-5-yl]ethyl}phenyl)acetamide] had a Ki of 1.41 nM.

Take `CCC(O)(C(N)=O)c1ccccc1CC[C@]1(O)CCC2=Cc3c(cnn3-c3ccc(F)cc3)C[C@@]21C` (stereo partly drawn) [Example 199, 2-(2-{2-[(4αS,5R)-1-(4-fluorophenyl)-5-hydroxy-4α-methyl-1,4,4α,5,6,7-hexahydrocyclopenta[f]indazol-5-yl]ethyl}phenyl)-2-hydroxybutanamide]: the Ki is 4.55 nM.

`CC(C)C(O)(C(N)=O)c1ccccc1CC[C@]1(O)CCC2=Cc3c(cnn3-c3ccc(F)cc3)C[C@@]21C` (stereo partly drawn) [Example 201, 2-(2-{2-[(4αS,5R)-1-(4-fluorophenyl)-5-hydroxy-4α-methyl-1,4,4α,5,6,7-hexahydrocyclopenta[f]indazol-5-yl]ethyl}phenyl)-2-hydroxy-3-methylbutanamide] came in with a Ki of 5.62 nM.
